Assay results reported in PubChem BioAssay (NCI).
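Interpolation was linear, between the two tested concentrations surrounding the appropriate level; five concentrations were tested over 48 hours in 96-well plates. TGI is the concentration that stops growth completely.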

How the values were obtained:
Assay in all cases: growth of human tumour cells (NCI), 48 h
HCC-2998 colon = tested on: HCC-2998 colon
SK-MEL-5 melanoma = tested on: SK-MEL-5 melanoma
SF-295 CNS = tested on: SF-295 CNS
OVCAR-3 ovarian = tested on: OVCAR-3 ovarian
SK-MEL-28 melanoma = tested on: SK-MEL-28 melanoma
NCI-H226 lung = tested on: NCI-H226 lung
K-562 leukemia = tested on: K-562 leukemia
SK-MEL-2 melanoma = tested on: SK-MEL-2 melanoma
PC-3 prostate = tested on: PC-3 prostate
NCI-H522 lung = tested on: NCI-H522 lung
RXF 393 renal = tested on: RXF 393 renal
HL-60(TB) leukemia = tested on: HL-60(TB) leukemia
MALME-3M melanoma = tested on: MALME-3M melanoma
EKVX NSCLC = tested on: EKVX NSCLC
HT29 colon = tested on: HT29 colon
BT-549 breast = tested on: BT-549 breast
NCI/ADR-RES ovarian = tested on: NCI/ADR-RES ovarian
MDA-MB-435 = tested on: MDA-MB-435
MOLT-4 leukemia = tested on: MOLT-4 leukemia
A549 NSCLC = tested on: A549 NSCLC
COLO 205 colon = tested on: COLO 205 colon
SW-620 colon = tested on: SW-620 colon
786-0 renal = tested on: 786-0 renal
MDA-MB-231 breast = tested on: MDA-MB-231 breast
HCT-116 colon = tested on: HCT-116 colon
IGROV1 ovarian = tested on: IGROV1 ovarian
UACC-257 melanoma = tested on: UACC-257 melanoma
RPMI-8226 leukemia = tested on: RPMI-8226 leukemia
SF-539 CNS = tested on: SF-539 CNS
SN12C renal = tested on: SN12C renal
CAKI-1 renal = tested on: CAKI-1 renal
OVCAR-5 ovarian = tested on: OVCAR-5 ovarian
HOP-62 NSCLC = tested on: HOP-62 NSCLC
NCI-H23 lung = tested on: NCI-H23 lung
U251 CNS = tested on: U251 CNS
OVCAR-4 ovarian = tested on: OVCAR-4 ovarian
KM12 colon = tested on: KM12 colon
OVCAR-8 ovarian = tested on: OVCAR-8 ovarian
CCRF-CEM leukemia = tested on: CCRF-CEM leukemia
HS 578T breast = tested on: HS 578T breast
HCT-15 colon = tested on: HCT-15 colon
NCI-H460 lung = tested on: NCI-H460 lung
SR leukemia = tested on: SR leukemia
LOX IMVI melanoma = tested on: LOX IMVI melanoma
MDA-N = tested on: MDA-N
UO-31 renal = tested on: UO-31 renal
A498 renal = tested on: A498 renal
DU-145 prostate = tested on: DU-145 prostate
MCF7 breast = tested on: MCF7 breast
SF-268 CNS = tested on: SF-268 CNS
UACC-62 melanoma = tested on: UACC-62 melanoma
TK-10 renal = tested on: TK-10 renal
ACHN renal = tested on: ACHN renal
SK-OV-3 ovarian = tested on: SK-OV-3 ovarian
M14 melanoma = tested on: M14 melanoma
HOP-92 NSCLC = tested on: HOP-92 NSCLC
SNB-19 CNS = tested on: SNB-19 CNS

Cc1n[nH]c(=O)n1/N=C\c1ccccc1
TGI (HCC-2998 colon): > 100 µM
TGI (SK-MEL-5 melanoma): > 100 µM
TGI (SF-295 CNS): > 100 µM
TGI (OVCAR-3 ovarian): > 100 µM
TGI (SK-MEL-28 melanoma): > 100 µM
TGI (NCI-H226 lung): > 100 µM
TGI (K-562 leukemia): > 100 µM
TGI (SK-MEL-2 melanoma): > 100 µM
TGI (PC-3 prostate): > 100 µM
TGI (NCI-H522 lung): > 100 µM
TGI (RXF 393 renal): 50.9 µM
TGI (HL-60(TB) leukemia): > 100 µM
TGI (MALME-3M melanoma): > 100 µM
TGI (EKVX NSCLC): > 100 µM
TGI (HT29 colon): > 100 µM
TGI (BT-549 breast): > 100 µM
TGI (NCI/ADR-RES ovarian): > 100 µM
TGI (MDA-MB-435): > 100 µM
TGI (MOLT-4 leukemia): > 100 µM
TGI (A549 NSCLC): > 100 µM
TGI (COLO 205 colon): > 100 µM
TGI (SW-620 colon): > 100 µM
TGI (786-0 renal): > 100 µM
TGI (MDA-MB-231 breast): > 100 µM
TGI (HCT-116 colon): > 100 µM
TGI (IGROV1 ovarian): > 100 µM
TGI (UACC-257 melanoma): > 100 µM
TGI (RPMI-8226 leukemia): > 100 µM
TGI (SF-539 CNS): > 100 µM
TGI (SN12C renal): > 100 µM
TGI (CAKI-1 renal): > 100 µM
TGI (OVCAR-5 ovarian): > 100 µM
TGI (HOP-62 NSCLC): > 100 µM
TGI (NCI-H23 lung): > 100 µM
TGI (U251 CNS): > 100 µM
TGI (OVCAR-4 ovarian): > 100 µM
TGI (KM12 colon): > 100 µM
TGI (OVCAR-8 ovarian): > 100 µM
TGI (CCRF-CEM leukemia): > 100 µM
TGI (HS 578T breast): > 100 µM
TGI (HCT-15 colon): > 100 µM
TGI (NCI-H460 lung): > 100 µM
TGI (SR leukemia): > 100 µM
TGI (LOX IMVI melanoma): > 100 µM
TGI (MDA-N): > 100 µM
TGI (UO-31 renal): > 100 µM
TGI (A498 renal): > 100 µM
TGI (DU-145 prostate): > 100 µM
TGI (MCF7 breast): > 100 µM
TGI (SF-268 CNS): > 100 µM
TGI (UACC-62 melanoma): > 100 µM
TGI (TK-10 renal): > 100 µM
TGI (ACHN renal): > 100 µM

Cc1ccc(C2=C(C#N)C(N)OC3=C2COc2ccccc23)cc1 (configuration not stated)
TGI (HCC-2998 colon): > 100 µM
TGI (SK-OV-3 ovarian): 67.9 µM
TGI (M14 melanoma): > 100 µM
TGI (SK-MEL-5 melanoma): > 100 µM
TGI (OVCAR-3 ovarian): 41.9 µM
TGI (SK-MEL-28 melanoma): > 100 µM
TGI (NCI-H226 lung): > 100 µM
TGI (K-562 leukemia): > 100 µM
TGI (SK-MEL-2 melanoma): > 100 µM
TGI (PC-3 prostate): 57.2 µM
TGI (HL-60(TB) leukemia): > 100 µM
TGI (MALME-3M melanoma): 82.1 µM
TGI (EKVX NSCLC): 37.4 µM
TGI (HT29 colon): > 100 µM
TGI (BT-549 breast): > 100 µM
TGI (NCI/ADR-RES ovarian): > 100 µM
TGI (MDA-MB-435): > 100 µM
TGI (MOLT-4 leukemia): > 100 µM
TGI (A549 NSCLC): > 100 µM
TGI (COLO 205 colon): > 100 µM
TGI (SW-620 colon): > 100 µM
TGI (HOP-92 NSCLC): > 100 µM
TGI (MDA-MB-231 breast): > 100 µM
TGI (HCT-116 colon): > 100 µM
TGI (IGROV1 ovarian): > 100 µM
TGI (UACC-257 melanoma): > 100 µM
TGI (RPMI-8226 leukemia): > 100 µM
TGI (SF-539 CNS): > 100 µM
TGI (SN12C renal): 74.4 µM
TGI (HOP-62 NSCLC): 34.9 µM
TGI (NCI-H23 lung): > 100 µM
TGI (U251 CNS): 51 µM
TGI (SNB-19 CNS): 41.9 µM
TGI (OVCAR-4 ovarian): 40.7 µM
TGI (KM12 colon): > 100 µM
TGI (CCRF-CEM leukemia): 76 µM
TGI (HCT-15 colon): > 100 µM
TGI (NCI-H460 lung): > 100 µM
TGI (SR leukemia): > 100 µM
TGI (LOX IMVI melanoma): > 100 µM
TGI (MDA-N): > 100 µM
TGI (UO-31 renal): 33.7 µM
TGI (A498 renal): 50.2 µM
TGI (DU-145 prostate): 69.1 µM
TGI (MCF7 breast): > 100 µM
TGI (SF-268 CNS): 85.9 µM
TGI (UACC-62 melanoma): > 100 µM
TGI (TK-10 renal): 44.4 µM
TGI (ACHN renal): > 100 µM
